Results taken from the NIST ThermoML archive (doi:10.1021/je060271a).
Numbers after ± are expanded uncertainties.

Conditions: 323.15 K, Liquid, Vibrating tube method

In the case of `CCCCC(=O)OCC(COC(=O)CCCC)(COC(=O)CCCC)COC(=O)CCCC` [pentaerythritol tetrapentanoate], the mass density (2620 kPa) is reported as 996.4 ± 1.2 kg/m3, the mass density (2660.6 kPa) is reported as 996.5 ± 1.2 kg/m3 and the mass density (2696.9 kPa) is reported as 996.5 ± 1.2 kg/m3. For the same molecule, the mass density (2718.7 kPa) was 996.6 ± 1.2 kg/m3, the mass density (2740.2 kPa) was 996.6 ± 1.2 kg/m3 and the mass density (2766.8 kPa) was 996.6 ± 1.2 kg/m3. The mass density (2789.3 kPa) was 996.7 ± 1.2 kg/m3, the mass density (2812.2 kPa) was 996.6 ± 1.2 kg/m3 and the mass density (2835.1 kPa) was 996.5 ± 1.2 kg/m3. It also gave a mass density (2863.3 kPa) of 996.6 ± 1.2 kg/m3, a mass density (2886.9 kPa) of 996.7 ± 1.2 kg/m3 and a mass density (2911 kPa) of 996.7 ± 1.2 kg/m3. It also gave a mass density (2989.9 kPa) of 996.7 ± 1.2 kg/m3, a mass density (3015.4 kPa) of 996.6 ± 1.2 kg/m3 and a mass density (3041 kPa) of 996.8 ± 1.2 kg/m3. For the same molecule, the mass density (3072.2 kPa) was 996.8 ± 1.2 kg/m3, the mass density (3098.9 kPa) was 996.7 ± 1.2 kg/m3 and the mass density (3127.4 kPa) was 996.8 ± 1.2 kg/m3. The mass density (3156.2 kPa) was 996.9 ± 1.2 kg/m3, the mass density (3188.1 kPa) was 996.9 ± 1.2 kg/m3 and the mass density (3211.7 kPa) was 996.9 ± 1.2 kg/m3. It also gave a mass density (3262.5 kPa) of 996.8 ± 1.2 kg/m3, a mass density (3273.9 kPa) of 997 ± 1.2 kg/m3 and a mass density (3286 kPa) of 997.1 ± 1.2 kg/m3. For the same molecule, the mass density (3299.4 kPa) was 997 ± 1.2 kg/m3, the mass density (3310.7 kPa) was 996.9 ± 1.2 kg/m3 and the mass density (3322.8 kPa) was 997 ± 1.2 kg/m3. The mass density (3337.8 kPa) was 996.9 ± 1.2 kg/m3, the mass density (3347.6 kPa) was 997 ± 1.2 kg/m3 and the mass density (3361.4 kPa) was 997.1 ± 1.2 kg/m3. For the same molecule, the mass density (3373 kPa) was 997 ± 1.2 kg/m3, the mass density (3399.5 kPa) was 997 ± 1.2 kg/m3 and the mass density (3411.5 kPa) was 997.1 ± 1.2 kg/m3. For the same molecule, the mass density (3423.8 kPa) was 997.1 ± 1.2 kg/m3, the mass density (3438.5 kPa) was 997.1 ± 1.2 kg/m3 and the mass density (3453.3 kPa) was 997.1 ± 1.2 kg/m3. It also gave a mass density (3522.2 kPa) of 997 ± 1.2 kg/m3, a mass density (3637.3 kPa) of 997.2 ± 1.2 kg/m3 and a mass density (3714.9 kPa) of 997.3 ± 1.2 kg/m3. The mass density (3733.1 kPa) was 997.2 ± 1.2 kg/m3, the mass density (3751.4 kPa) was 997.3 ± 1.2 kg/m3 and the mass density (3769.8 kPa) was 997.4 ± 1.2 kg/m3. For the same molecule, the mass density (3791.1 kPa) was 997.3 ± 1.2 kg/m3, the mass density (3809.5 kPa) was 997.4 ± 1.2 kg/m3 and the mass density (3828.4 kPa) was 997.3 ± 1.2 kg/m3. For the same molecule, the mass density (3846.7 kPa) was 997.3 ± 1.2 kg/m3, the mass density (3869.1 kPa) was 997.3 ± 1.2 kg/m3 and the mass density (3887.6 kPa) was 997.3 ± 1.2 kg/m3. For the same molecule, the mass density (3909.9 kPa) was 997.3 ± 1.2 kg/m3, the mass density (3929 kPa) was 997.5 ± 1.2 kg/m3 and the mass density (3947.9 kPa) was 997.4 ± 1.2 kg/m3. For the same molecule, the mass density (3967.4 kPa) was 997.4 ± 1.2 kg/m3, the mass density (3987.2 kPa) was 997.5 ± 1.2 kg/m3 and the mass density (4010 kPa) was 997.4 ± 1.2 kg/m3. For the same molecule, the mass density (4029.3 kPa) was 997.5 ± 1.2 kg/m3, the mass density (4049 kPa) was 997.5 ± 1.2 kg/m3 and the mass density (4072.7 kPa) was 997.4 ± 1.2 kg/m3. The mass density (4092.3 kPa) was 997.5 ± 1.2 kg/m3, the mass density (4112.7 kPa) was 997.6 ± 1.2 kg/m3 and the mass density (4137.3 kPa) was 997.5 ± 1.2 kg/m3. It also gave a mass density (4158.1 kPa) of 997.5 ± 1.2 kg/m3, a mass density (4179.1 kPa) of 997.6 ± 1.2 kg/m3 and a mass density (4200.2 kPa) of 997.6 ± 1.2 kg/m3. The mass density (4225 kPa) was 997.6 ± 1.2 kg/m3, the mass density (4246.8 kPa) was 997.7 ± 1.2 kg/m3 and the mass density (4268.4 kPa) was 997.5 ± 1.2 kg/m3. It also gave a mass density (4290.2 kPa) of 997.6 ± 1.2 kg/m3, a mass density (4316 kPa) of 997.7 ± 1.2 kg/m3 and a mass density (4337.7 kPa) of 997.6 ± 1.2 kg/m3. The mass density (4359.8 kPa) was 997.7 ± 1.2 kg/m3, the mass density (4382.3 kPa) was 997.8 ± 1.2 kg/m3 and the mass density (4409 kPa) was 997.7 ± 1.2 kg/m3. It also gave a mass density (4431.7 kPa) of 997.7 ± 1.2 kg/m3, a mass density (4454.9 kPa) of 997.7 ± 1.2 kg/m3 and a mass density (4478.1 kPa) of 997.8 ± 1.2 kg/m3. For the same molecule, the mass density (4506.5 kPa) was 997.9 ± 1.2 kg/m3, the mass density (4529.8 kPa) was 997.9 ± 1.2 kg/m3 and the mass density (4554.2 kPa) was 997.9 ± 1.2 kg/m3. The mass density (4579 kPa) was 997.8 ± 1.2 kg/m3, the mass density (4607.9 kPa) was 998 ± 1.2 kg/m3 and the mass density (4632.1 kPa) was 997.9 ± 1.2 kg/m3. For the same molecule, the mass density (4657.2 kPa) was 998 ± 1.2 kg/m3, the mass density (4688.4 kPa) was 997.9 ± 1.2 kg/m3 and the mass density (4714.7 kPa) was 997.9 ± 1.2 kg/m3. It also gave a mass density (4741.5 kPa) of 998 ± 1.2 kg/m3, a mass density (4773.2 kPa) of 998 ± 1.2 kg/m3 and a mass density (4800.4 kPa) of 998 ± 1.2 kg/m3. It also gave a mass density (4827.4 kPa) of 998 ± 1.2 kg/m3, a mass density (4855.4 kPa) of 997.9 ± 1.2 kg/m3 and a mass density (4889.5 kPa) of 998.1 ± 1.2 kg/m3. For the same molecule, the mass density (4918.2 kPa) was 998.1 ± 1.2 kg/m3, the mass density (4946.4 kPa) was 998.1 ± 1.2 kg/m3 and the mass density (4975.1 kPa) was 998.2 ± 1.2 kg/m3. For the same molecule, the mass density (4978.1 kPa) was 998.3 ± 1.2 kg/m3, the mass density (4995.6 kPa) was 998.2 ± 1.2 kg/m3 and the mass density (4997.5 kPa) was 998.3 ± 1.2 kg/m3. The mass density (5038.8 kPa) was 998.1 ± 1.2 kg/m3, the mass density (5039.2 kPa) was 998.3 ± 1.2 kg/m3 and the mass density (5039.4 kPa) was 998.2 ± 1.2 kg/m3. For the same molecule, the mass density (5040 kPa) was 998.2 ± 1.2 kg/m3, the mass density (5040.7 kPa) was 998.2 ± 1.2 kg/m3 and the mass density (5041.6 kPa) was 998.2 ± 1.2 kg/m3. It also gave a mass density (5042.1 kPa) of 998.1 ± 1.2 kg/m3, a mass density (5042.6 kPa) of 998.2 ± 1.2 kg/m3 and a mass density (5044 kPa) of 998.2 ± 1.2 kg/m3. It also gave a mass density (5052.3 kPa) of 998.3 ± 1.2 kg/m3, a mass density (5059.4 kPa) of 998.3 ± 1.2 kg/m3 and a mass density (5066.5 kPa) of 998.4 ± 1.2 kg/m3. It also gave a mass density (5073.8 kPa) of 998.2 ± 1.2 kg/m3, a mass density (5082.4 kPa) of 998.2 ± 1.2 kg/m3 and a mass density (5089.7 kPa) of 998.2 ± 1.2 kg/m3. It also gave a mass density (5097 kPa) of 998.3 ± 1.2 kg/m3, a mass density (5105.8 kPa) of 998.3 ± 1.2 kg/m3 and a mass density (5113.1 kPa) of 998.3 ± 1.2 kg/m3. It also gave a mass density (5120.5 kPa) of 998.3 ± 1.2 kg/m3, a mass density (5128 kPa) of 998.3 ± 1.2 kg/m3 and a mass density (5134.7 kPa) of 998.4 ± 1.2 kg/m3. The mass density (5142.3 kPa) was 998.3 ± 1.2 kg/m3, the mass density (5150.8 kPa) was 998.3 ± 1.2 kg/m3 and the mass density (5158.4 kPa) was 998.2 ± 1.2 kg/m3. It also gave a mass density (5166.2 kPa) of 998.2 ± 1.2 kg/m3, a mass density (5174.9 kPa) of 998.3 ± 1.2 kg/m3 and a mass density (5182.5 kPa) of 998.3 ± 1.2 kg/m3. For the same molecule, the mass density (5189.9 kPa) was 998.3 ± 1.2 kg/m3, the mass density (5197.3 kPa) was 998.3 ± 1.2 kg/m3 and the mass density (5206 kPa) was 998.3 ± 1.2 kg/m3. It also gave a mass density (5213.8 kPa) of 998.3 ± 1.2 kg/m3, a mass density (5221.7 kPa) of 998.3 ± 1.2 kg/m3 and a mass density (5229.5 kPa) of 998.3 ± 1.2 kg/m3. It also gave a mass density (5238.5 kPa) of 998.5 ± 1.2 kg/m3, a mass density (5246.1 kPa) of 998.3 ± 1.2 kg/m3 and a mass density (5254.1 kPa) of 998.4 ± 1.2 kg/m3. The mass density (5261.5 kPa) was 998.4 ± 1.2 kg/m3, the mass density (5270.5 kPa) was 998.3 ± 1.2 kg/m3 and the mass density (5278.7 kPa) was 998.4 ± 1.2 kg/m3. For the same molecule, the mass density (5287.8 kPa) was 998.4 ± 1.2 kg/m3, the mass density (5295.3 kPa) was 998.4 ± 1.2 kg/m3 and the mass density (5303 kPa) was 998.5 ± 1.2 kg/m3. For the same molecule, the mass density (5312.6 kPa) was 998.3 ± 1.2 kg/m3, the mass density (5320.7 kPa) was 998.4 ± 1.2 kg/m3 and the mass density (5329.2 kPa) was 998.5 ± 1.2 kg/m3. The mass density (5336.8 kPa) was 998.3 ± 1.2 kg/m3, the mass density (5345.1 kPa) was 998.5 ± 1.2 kg/m3 and the mass density (5352.9 kPa) was 998.5 ± 1.2 kg/m3. The mass density (5362.7 kPa) was 998.5 ± 1.2 kg/m3, the mass density (5370.9 kPa) was 998.4 ± 1.2 kg/m3 and the mass density (5379 kPa) was 998.5 ± 1.2 kg/m3. For the same molecule, the mass density (5388.7 kPa) was 998.4 ± 1.2 kg/m3, the mass density (5397.1 kPa) was 998.5 ± 1.2 kg/m3 and the mass density (5405.1 kPa) was 998.5 ± 1.2 kg/m3. It also gave a mass density (5413.1 kPa) of 998.3 ± 1.2 kg/m3, a mass density (5422.9 kPa) of 998.5 ± 1.2 kg/m3 and a mass density (5431 kPa) of 998.5 ± 1.2 kg/m3. It also gave a mass density (5439.2 kPa) of 998.5 ± 1.2 kg/m3, a mass density (5449.6 kPa) of 998.4 ± 1.2 kg/m3 and a mass density (5457.5 kPa) of 998.4 ± 1.2 kg/m3. It also gave a mass density (5465.6 kPa) of 998.5 ± 1.2 kg/m3, a mass density (5473.9 kPa) of 998.4 ± 1.2 kg/m3 and a mass density (5483.8 kPa) of 998.6 ± 1.2 kg/m3. The mass density (5491.6 kPa) was 998.5 ± 1.2 kg/m3 and the mass density (5499.5 kPa) was 998.6 ± 1.2 kg/m3.
